Measurements: publication PMC8313282 (Microbial Biotechnology, 2021)

Molecular target: T1, YHR112C (Saccharomyces cerevisiae, UniProt P38716)
T1 sequence (P38716 1-378): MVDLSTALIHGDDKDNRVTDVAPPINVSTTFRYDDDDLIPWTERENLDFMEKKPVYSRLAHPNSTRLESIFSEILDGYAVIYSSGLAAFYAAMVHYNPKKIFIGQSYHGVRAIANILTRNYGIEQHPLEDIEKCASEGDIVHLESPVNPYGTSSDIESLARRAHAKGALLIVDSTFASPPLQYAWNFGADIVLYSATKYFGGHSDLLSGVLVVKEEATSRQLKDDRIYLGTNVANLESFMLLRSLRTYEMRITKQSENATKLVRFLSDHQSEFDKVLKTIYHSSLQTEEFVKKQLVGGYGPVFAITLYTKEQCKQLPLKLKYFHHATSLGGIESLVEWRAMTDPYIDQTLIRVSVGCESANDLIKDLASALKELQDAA
Assay: HPLC of L-Met depletion and alpha-ketobutyrate
Type: biochemical
Settings: 50 mM Tris-HCl pH 8.0; 20 mM L-Met; 5 μM PLP; 30°C; 1 h; weak activity

CSCC[C@H](N)C(=O)O [L‐Met]
HPLC of L-Met depletion and alpha-ketobutyrate: while weak changes were observed for YHR112C
